These results are taken from patent US20140187587A1, “SYNERGISTIC FUNGICIDAL MIXTURES FOR FUNGAL CONTROL IN CEREALS” (Dow Agrosciences LLC, priority 2012, published 2014).

The subject of assay [1] is Puccinia recondita (PUCCRT). In words: 3-day curative (3DC) test of fungicide mixtures vs. wheat brown rust. It is filed as in vivo. Particulars: single active, wheat (Yuma) plants. The protocol: (§1) For the mixture studies with the compound of Formula I: Treatments consisted of fungicides, including the compound of Formula I and fluxapyroxad. Technical grades of materials were dissolved in acetone to make stock solutions, which were then used to perform 4-fold dilutions in acetone for each individual fungicide component or for the two-way mixture. Desired fungicide rates were obtained after mixing dilutions with 9 volumes of water containing 110 parts per million (ppm) Triton X-100. The fungicide solutions (20 milliliters (mL)) were applied to 12 pots of plants using an automated booth sprayer, which utilized two 6218-1/4 JAUPM spray nozzles operating at 20 pounds per square inch (psi) set at opposing angles to cover both leaf surfaces. All sprayed plants were allowed to air dry prior to further handling. Control plants were sprayed in the same manner with a solvent blank.
Evaluation of Curative Activity of Fungicide Mixtures vs. Wheat Brown Rust (Puccinia recondita; Bayer Code: PUCCRT).
Yuma wheat seedlings were grown as described above and inoculated with an aqueous spore suspension of Puccinia recondita 3 days prior to fungicide treatment (3DC). After inoculation, plants were placed in a dew room for 1 day to allow for infection to occur. The plants were then placed in the greenhouse for symptom development to occur, which in the case of PUCCRT typically required 7-10 days.
(§2) When disease severity reached 50-100% on the control plants, infection levels were assessed on treated plants visually and scored on a scale of 0 to 100 percent. The percentage of disease control was then calculated using the ratio of disease on treated plants relative to control plants.
(§3) The Colby equation was used to determine the fungicidal effects expected from the mixtures. (See Colby, S. R. Calculation of the synergistic and antagonistic response of herbicide combinations. Weeds 1967, 15, 20-22.)
(§4) The following equation was used to calculate the expected activity of mixtures containing two active ingredients, A and B:
(§5) A=observed efficacy of active component A at the same concentration as used in the mixture;
(§6) B=observed efficacy of active component B at the same concentration as used in the mixture.

Assay [2] concerns Septoria tritici (SEPTTR). As to the kind of experiment: 1-day protectant (1DP) test of fungicide mixtures vs. leaf blotch of wheat. Type of assay: in vivo, Mycosphaerella graminicola; anamorph: Septoria tritici. The following applies: single active, wheat (Yuma) plants. The protocol:
as §1
Evaluation of Curative and Protectant Activity of Fungicide Mixtures vs. Leaf Blotch of Wheat (Mycosphaerella graminicola; Anamorph: Septoria tritici; Bayer Code: SEPTTR).
Wheat plants (variety Yuma) were grown from seed in a greenhouse in plastic pots with a surface area of 27.5 square centimeters (cm^2) containing 50% mineral soil/50% soil-less Metro mix, with 8-12 seedlings per pot. The plants were utilized for testing when the first leaf was fully emerged, which typically occurred 7-8 days after planting. Test plants were inoculated with an aqueous spore suspension of Septoria tritici either (a) 3 days prior to fungicide treatments (3-day curative test, 3DC) or (b) 1 day after fungicide treatments (1-day protectant test, 1DP). After inoculation the plants were placed in a dew room from 1-3 days to allow for infection to occur. The plants were then placed in the greenhouse for symptom development to occur, which in the case of SEPTTR typically required 25-30 days.
as §2, §3, §4, §5, §6

In the case of `COc1ccnc(C(=O)N[C@H]2COC(=O)[C@H](Cc3ccccc3)[C@@H](OC(=O)C(C)C)[C@H](C)OC2=O)c1OCOC(=O)C(C)C` [Compound I, (3S,6S,7R,8R)-8-benzyl-3-(3-((isobutyryloxy)methoxy)-4-methoxypicolinamido)-6-methyl-4,9-dioxo-1,5-dioxonan-7-yl isobutyrate], the “% DC Obs (percent disease control observed), PUCCRT 3DC” value is 2% in assay [1] (application rate 0.1 ppm), 0% in assay [1] (application rate 0.39 ppm), 12% in assay [1] (application rate 1.56 ppm) and 98% in assay [1] (application rate 6.25 ppm). The “% DC Obs (percent disease control observed), SEPTTR 1DP” value in assay [2] (application rate 0.1 ppm) is 0%; in assay [2] (application rate 0.39 ppm), 0%; in assay [2] (application rate 1.56 ppm) it was 2%; in assay [2] (application rate 6.25 ppm) it was 93%.
Regarding `Cn1cc(C(=O)Nc2ccccc2-c2cc(F)c(F)c(F)c2)c(C(F)F)n1` [Fluxapyroxad, 3-(difluoromethyl)-1-methyl-N-(3′,4′,5′-trifluorobiphenyl-2-yl)pyrazole-4-carboxamide], the “% DC Obs (percent disease control observed), PUCCRT 3DC” value is reported as 0% in assay [1] (application rate 0.1 ppm), 0% in assay [1] (application rate 0.39 ppm), 86% in assay [1] (application rate 1.56 ppm) and 100% in assay [1] (application rate 6.25 ppm). Besides, the “% DC Obs (percent disease control observed), SEPTTR 1DP” value is 0% in assay [2] (application rate 0.1 ppm), 0% in assay [2] (application rate 0.39 ppm), 0% in assay [2] (application rate 1.56 ppm) and 94% in assay [2] (application rate 6.25 ppm).
